{"source": "patent US11439619B2", "about": "“Phosphaplatin compounds as immuno-modulatory agents and therapeutic uses thereof” (Phosplatin Therapeutics Inc., priority 2017, dated 2022)", "key": {"[1]": {"tested_on": "HCT116 colorectal cancer cell line", "assay": "HMGB1 release from HCT116 cells, ELISA", "format": "cell-based", "conditions": "HCT116, IC50 concentrations, 48 hours", "protocol": "FIG. 1 illustrates the release of high mobility group box 1 (HMGB1) from cells treated with PT-112. HMGB1 in the media of cells after 48 hours of drug treatment was measured via ELISA. HMGB1 release is involved in ICD and antigen presentation to dendritic cells. Error bars indicate 1 SEM, and p values were generated using two-tailed t-tests.\n(§1) Two such DAMPs are high mobility group box 1 (HMGB1) and calreticulin (CRT). HMGB1 is released from dying cells during ICD, whereas CRT migrates from the endoplasmic reticulum to the cell surface during ICD. To test if PT-112 exposure results in these events that are considered hallmarks of ICD, in vitro experiments using the HCT116 colorectal cancer cell line were conducted.\nSubsequently, HMGB1 in the media of the cells was measured via ELISA."}, "[2]": {"assay": "chronic neuropathy indicators after repeat doses over 4 weeks (DRG Pt, NCV)", "format": "in vivo"}, "[3]": {"tested_on": "HCT116 colorectal cancer cell line", "assay": "calreticulin (CRT) cell surface exposure in HCT116 cells, flow cytometry", "format": "cell-based", "conditions": "HCT116, IC50 concentrations, 48 hours", "protocol": "FIG. 2 illustrates the cell surface exposure of calreticulin (CRT) from cells treated with PT-112. CRT cell surface expression was measured via flow cytometry after 48 hours of drug treatment. A peak present to the right of the main peak indicates cells staining positive for CRT, a hallmark of ICD and an indicator of phagocyte targeting.\nas §1\nCells were then stained with an anti-CRT antibody, and positive staining was detected via flow cytometry."}, "[4]": {"conditions": "data from the literature; cited from earlier work"}, "live tumor cells": {"tested_on": "live tumor cells", "assay": "vaccination experiment with live tumor cell challenge", "format": "in vivo, mice", "conditions": "vaccine from agent-killed cells", "protocol": "FIG. 4 illustrates the survival advantage conferred when different vaccines are given to mice before being challenged with a live tumor cell injection. Vaccines are composed of dead and dying cancer cells of the same cell line exposed to different anti-cancer agents, killed by exposure to different agents.\nThe “gold standard” for ICD validation is a vaccine experiment, where mice are injected with dead cell material generated by exposing cells to an anticancer agent. Importantly, the anti-cancer agent is removed, and the mice are only injected with the dead and dying cells. Subsequently, after 1-2 weeks, mice are then challenged with an injection of live tumor cells of the same type used to create the vaccine.\nThis vaccination experiment was conducted using four different treatment groups, one unvaccinated negative control, and three receiving vaccines from the use of different agents: cisplatin (a negative control, non-ICD inducer), mitoxantrone (a positive control ICD inducer), and PT-112 (the experimental arm) (FIG. 4). The vast majority of mice (80-90%) in both negative control groups developed tumors rapidly (within one week)."}, "[5]": {"assay": "renal function and tolerability in rats", "format": "in vivo"}, "[6]": {"tested_on": "PANC1 pancreatic cancer model", "assay": "PANC1 pancreatic cancer model", "format": "in vivo"}, "[7]": {"tested_on": "immunogenic cell death (ICD)", "assay": "effects indicative of ICD induction versus oxali", "format": "cell-based", "conditions": "compared with oxali", "excerpt": "(§2) A high degree of correlation was observed between cis and carbo activity, but not between those agents and PT-112. A correlation between PT-112 and oxali was also observed, which led to investigation of cellular targets and mechanisms not shared by these two agents. […] These effects comprise the release of HMGB1 and ATP, the cell surface exposure of calreticulin (CRT), and the suppression of STATS."}, "[8]": {"assay": "mouse model of acute neurotoxicity (cold hypersensitivity)", "format": "in vivo", "conditions": "single dose, PT-112 at twice the molar concentration of oxali"}, "CT26 cells": {"tested_on": "CT26 cells", "assay": "FACS analysis of tumor tissue, CT26 allograft", "format": "in vivo, mice", "excerpt": "(§3) FIG. 6 illustrates fluorescence-activated cell sorting (FACS) analysis of tumor biopsies from a mouse allograft experiment, whereby immune-competent mice were implanted with CT26 cells and were subsequently randomized into control, PT-112, anti-PD-L antibody, or combination treatment. Bars are normalized to the control group.\nFIG. 7 illustrates the effect of various treatments on the ratios of different cell populations from tumor biopsies in a mouse allograft experiment using the CT26 cell line, where mice were randomized into vehicle control, PT-112, anti-PD-L antibody, and combination treatment groups. PT-112 treatment groups had large increases in the ratio of immunogenic to immunosuppressive cell types, indicating PT-112 induces a more immunogenic tumor microenvironment.\nAdditionally, tumor tissue was removed from additional treated mice and analyzed via FACS for differences in white blood cell populations."}, "[9]": {"tested_on": "broadly platinum-resistant cell panel", "assay": "IC50 values in a broadly platinum-resistant cell panel", "format": "cell-based", "excerpt": "as §2"}, "[10]": {"parameters": "species or system rats", "conditions": "rat, in vivo", "excerpt": "Importantly, Pt in plasma, but not present in the PUF, is believed to be protein-bound and not bioavailable for therapeutic benefit."}, "MC38 cells": {"tested_on": "MC38 cells", "assay": "FACS analysis of tumor tissue, MC38 allograft", "format": "in vivo, mice", "excerpt": "as §3, with “8” for “6”, “MC38” for “CT26”, “anti-PD-L1” for “anti-PD-L”\nFIG. 9 illustrates the effect of various treatments on the ratios of different cell populations from tumor biopsies in a mouse allograft experiment using the MC38 cell line, where mice were randomized into vehicle control, PT-112, anti-PD-L1 antibody, and combination treatment groups. […]\nTo better understand the effects of the different treatments on T cell populations, additional immuno-competent mice were implanted with MC38 cells and were subsequently randomized into control, PT-112, anti-PD-L1 antibody, or combination treatment arms (n=5). After 2 weeks of treatment (PT-112 @ 90 mg/kg QW and PD-L1 @ 10 mg/kg BIW), tumor tissue was removed and analyzed via FACS for differences in white blood cell populations. […]\nNot all white blood cell populations are immunogenic. […] To better understand if the changes observed would have a net immunogenic or immunosuppressive effect, ratios of different cell populations were calculated (FIG. 9)."}, "murine TSA cells": {"tested_on": "murine TSA cells", "assay": "ATP release from TSA cells, luminometric assay", "format": "cell-based", "conditions": "48 hours, two concentrations", "protocol": "FIG. 3 illustrates the release of adenosine triphosphate (ATP) from cells treated with PT-112. ATP in the media of cells after 48 hours of drug treatment was measured via a luminometric assay. PT-112 was tested in two concentrations, as was cisplatin (a negative control for ICD), in addition to a single concentration of mitoxantrone (a positive ICD control) and an untreated negative control sample. ATP release is indicative of ICD and involved in recruitment and activation of antigen-presenting cells.\nPT-112 was also tested for its ability to release the DAMP ATP (FIG. 3), which is involved in the recruitment and activation of antigen-presenting cells. Here, murine TSA cells were exposed to either PT-112 at two different concentrations, cisplatin (a negative control for ICD, also at two concentrations), mitoxantrone (a positive ICD control), or no drug control for 48 hours. Subsequently, ATP in the media was measured via a luminometric assay. […] This is again indicative of PT-112 robustly causing ICD."}, "[11]": {"tested_on": "HCT116 colon cancer model", "assay": "phosphorylation of H2AX and induction of Ku70 in HCT116 colon cancer model", "format": "cell-based", "conditions": "versus oxali at equipotent concentrations", "excerpt": "as §2"}, "cancer cell models": {"tested_on": "cancer cell models", "assay": "Pt accumulation in DNA and whole cell extracts of cancer cell models", "format": "cell-based", "conditions": "previous work; compared with cisplatin or oxaliplatin exposure", "excerpt": "PT-112 is a new chemical entity under clinical development in the US and the People's Republic of China, designed to minimize particular toxicities associated with traditional platinum agents and drug resistance stemming from DNA damage and repair. As a pyrophosphate-conjugated Pt-containing anti-neoplastic therapeutic, PT-112 differs from platinum therapies in both mechanism and toxicity. […] Nonetheless, PT-112 has potent cytotoxic activity in in vitro systems, implying a different spectrum of targets for PT-112 in comparison to traditional platinum compounds. We explored the activity and mechanism of action of PT-112 by investigating impacts on cancer related proteins and pathways, including those connected to immunogenic cell death (ICD), as well as how PT-112 potency is affected by DNA repair pathways. In addition, PT-112 anticancer activity, pharmacokinetics (PK), and toxicity were measured in multiple in vivo systems."}, "[12]": {"tested_on": "nucleotide excision repair (NER)-deficient HCT116 cells and their isogenic NER-proficient counterparts", "assay": "potency in NER-deficient versus NER-proficient HCT116 cells", "format": "cell-based", "excerpt": "as §2"}, "CXF280 colon PDX": {"tested_on": "CXF280 colon PDX", "assay": "CXF280 colon PDX model", "format": "in vivo"}, "[13]": {"tested_on": "GXF97 gastric patient-derived xenograft", "assay": "GXF97 gastric patient-derived xenograft (PDX) model", "format": "in vivo", "conditions": "higher doses not tolerated by all mice, data not shown"}, "p53 and MDM2": {"tested_on": "p53 and MDM2", "assay": "impact on p53 and MDM2 levels", "format": "cell-based", "excerpt": "as §2"}}, "data": [{"molecule": "O=C1[O][Pt]2([NH][C@@H]3CCCC[C@H]3[NH]2)[O]C1=O", "note": "[oxaliplatin, reference compound]", "values": [{"measurement": "HMGB1 release into the media", "setting": "[1]", "result": "elevated levels of HMGB1 in the media versus untreated control cells"}, {"measurement": "nerve conduction velocity (NCV)", "setting": "[2]", "result": "dose-dependent declines"}, {"measurement": "anti-CRT antibody staining (cell surface CRT)", "setting": "[3]", "result": "enhanced staining relative to control"}, {"measurement": "fraction of Pt in the plasma ultrafiltrate (PUF)", "setting": "[4]", "result": 28.2, "unit": "%"}]}, {"molecule": "O=C1c2c(O)ccc(O)c2C(=O)c2c(NCCNCCO)ccc(NCCNCCO)c21", "note": "[mitoxantrone]", "values": [{"measurement": "mice remaining tumor free", "setting": "live tumor cells; PT-112 group for over one month", "result": 40, "unit": "%"}]}, {"molecule": "O=P1(O)OP(=O)(O)[O][Pt]2([NH][C@@H]3CCCC[C@H]3[NH]2)[O]1", "note": "(stereo partly drawn) [PT-112, trans-(R,R)-1,2-cyclohexanediamine(pyrophosphato) platinum(II)]", "values": [{"measurement": "tolerated concentration relative to cis", "setting": "[5]; rats", "result": 7, "unit": "fold"}, {"measurement": "effects on renal function (creatinine, BUN and GFR)", "setting": "[5]; rats, PT-112 at 7-fold higher concentrations than cis", "result": "minimal effects"}, {"measurement": "tumor growth", "setting": "[6]", "result": "Sustained tumor growth delay"}, {"measurement": "effects indicative of ICD induction (release of HMGB1 and ATP, cell surface exposure of CRT, suppression of STATS)", "setting": "[7]", "result": "significantly greater extent than oxali"}, {"measurement": "cold hypersensitivity", "setting": "[8]", "result": "indistinguishable from untreated controls"}, {"measurement": "changes in cytotoxic T cell (CD8+) and helper T cell (CD4+) populations in tumor", "setting": "CT26 cells", "result": "large changes"}, {"measurement": "ratio of immunogenic to immunosuppressive T cell populations", "setting": "CT26 cells", "result": "favorable changes"}, {"measurement": "IC50 values compared with cis, carbo and oxali", "setting": "[9]", "result": "superior to cis, carboplatin (carbo), and oxali in a majority of cell lines"}, {"measurement": "fraction of Pt in the plasma ultrafiltrate (PUF) relative to total plasma Pt", "setting": "[10]", "result": 72.8, "unit": "%"}, {"measurement": "stability in plasma (parent by LC-MS/MS)", "setting": "[10]", "result": "stability of PT-112 in plasma"}, {"measurement": "changes in white blood cell populations incl. cytotoxic T cells (CD8+) and helper T cells (CD4+) in tumor", "setting": "MC38 cells; MC38, 2 weeks, PT-112 90 mg/kg QW, PD-L1 10 mg/kg BIW, FACS", "result": "large changes"}, {"measurement": "ratios of helper T cells and cytotoxic T cells to regulatory T cells", "setting": "MC38 cells; MC38, FACS", "result": "positive effects"}, {"measurement": "release of ATP into the media", "setting": "murine TSA cells", "result": "robust release of ATP"}, {"measurement": "HMGB1 release into the media", "setting": "[1]", "result": "significantly higher"}, {"measurement": "effect on induction of Ku70", "setting": "[11]", "result": "minimal effect"}, {"measurement": "effect on the phosphorylation of H2AX", "setting": "[11]", "result": "minimal effect"}, {"measurement": "Pt accumulation in DNA and whole cell extracts", "setting": "cancer cell models", "result": "significantly less Pt accumulation"}, {"measurement": "potency difference between NER-deficient and NER-proficient HCT116 cells", "setting": "[12]", "result": "did not differ significantly"}, {"measurement": "tumor growth", "setting": "CXF280 colon PDX", "result": "Sustained tumor growth delay"}, {"measurement": "response at higher doses", "setting": "[13]", "result": "Cases of complete response were observed"}, {"measurement": "impact on p53 and MDM2 levels", "setting": "p53 and MDM2", "result": "noteworthy impact"}, {"measurement": "accumulation of Pt in dorsal root ganglia (DRG) nerve tissue", "setting": "[2]", "result": "minimal accumulation"}, {"measurement": "nerve conduction velocity (NCV)", "setting": "[2]", "result": "no significant loss"}, {"measurement": "anti-CRT antibody staining (cell surface CRT)", "setting": "[3]", "result": "greater effect"}]}, {"molecule": "N.N.[Cl][Pt][Cl]", "note": "[cisplatin, reference compound]", "values": [{"measurement": "effects on renal function (creatinine, BUN and GFR)", "setting": "[5]; rat, in vivo", "result": "caused morbidity"}, {"measurement": "mice that developed tumors", "setting": "live tumor cells; within one week", "result": "80-90%"}, {"measurement": "potency difference between NER-deficient and NER-proficient HCT116 cells", "setting": "[12]", "result": "NER-competent cells were less sensitive"}]}]}
